Results taken from doi:10.1101/2020.03.06.976563v1 (biorxiv, 2020).
Where two headings read alike, the source gives them in different places.

What was measured:
[1] = target: T1, BMP2K (Homo sapiens, UniProt Q9NSY1); experiment: biochemical
[2] = target: T2, AAK1 (Homo sapiens, UniProt Q2M2I8); experiment: biochemical
[3] = target: T3, cyclin G associated kinase (GAK), kinase domain (Homo sapiens, UniProt O14976); experiment: biochemical
T3 sequence (O14976 12-347 limits assumed): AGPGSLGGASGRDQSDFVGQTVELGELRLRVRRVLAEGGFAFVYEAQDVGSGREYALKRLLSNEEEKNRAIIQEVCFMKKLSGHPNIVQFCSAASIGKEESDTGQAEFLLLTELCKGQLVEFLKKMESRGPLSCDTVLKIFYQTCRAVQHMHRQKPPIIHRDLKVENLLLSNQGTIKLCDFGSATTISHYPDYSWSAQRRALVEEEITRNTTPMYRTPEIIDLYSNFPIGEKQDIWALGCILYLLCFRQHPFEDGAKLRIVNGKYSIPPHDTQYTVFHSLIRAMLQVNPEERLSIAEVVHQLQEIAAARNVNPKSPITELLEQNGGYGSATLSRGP

[4] = target: T4, STK16 (Homo sapiens, UniProt O75716); experiment: biochemical
T4 sequence (O75716 whole entry, the tested form may be a part): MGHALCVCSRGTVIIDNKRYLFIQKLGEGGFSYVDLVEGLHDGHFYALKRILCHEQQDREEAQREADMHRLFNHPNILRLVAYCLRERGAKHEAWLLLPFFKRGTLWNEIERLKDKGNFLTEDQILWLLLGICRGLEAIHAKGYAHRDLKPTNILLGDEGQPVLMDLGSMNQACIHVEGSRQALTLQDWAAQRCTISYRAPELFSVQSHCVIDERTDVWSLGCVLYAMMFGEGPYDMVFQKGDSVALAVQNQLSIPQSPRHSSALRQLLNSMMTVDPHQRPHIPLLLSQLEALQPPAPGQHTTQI

[5] = target: T3, cyclin G associated kinase (GAK), kinase domain; experiment: TR-FRET ligand binding displacement assay, 16-point dose response
[6] = target: T2, AAK1; experiment: biochemical; remark: listed apart in the source
[7] = target: T3, cyclin G associated kinase (GAK), kinase domain; experiment: biochemical; remark: listed apart in the source
[8] = target: T4, STK16; experiment: biochemical; remark: listed apart in the source
[9] = target: T1, BMP2K; experiment: biochemical; remark: listed apart in the source

T1 sequence (Q9NSY1 whole entry): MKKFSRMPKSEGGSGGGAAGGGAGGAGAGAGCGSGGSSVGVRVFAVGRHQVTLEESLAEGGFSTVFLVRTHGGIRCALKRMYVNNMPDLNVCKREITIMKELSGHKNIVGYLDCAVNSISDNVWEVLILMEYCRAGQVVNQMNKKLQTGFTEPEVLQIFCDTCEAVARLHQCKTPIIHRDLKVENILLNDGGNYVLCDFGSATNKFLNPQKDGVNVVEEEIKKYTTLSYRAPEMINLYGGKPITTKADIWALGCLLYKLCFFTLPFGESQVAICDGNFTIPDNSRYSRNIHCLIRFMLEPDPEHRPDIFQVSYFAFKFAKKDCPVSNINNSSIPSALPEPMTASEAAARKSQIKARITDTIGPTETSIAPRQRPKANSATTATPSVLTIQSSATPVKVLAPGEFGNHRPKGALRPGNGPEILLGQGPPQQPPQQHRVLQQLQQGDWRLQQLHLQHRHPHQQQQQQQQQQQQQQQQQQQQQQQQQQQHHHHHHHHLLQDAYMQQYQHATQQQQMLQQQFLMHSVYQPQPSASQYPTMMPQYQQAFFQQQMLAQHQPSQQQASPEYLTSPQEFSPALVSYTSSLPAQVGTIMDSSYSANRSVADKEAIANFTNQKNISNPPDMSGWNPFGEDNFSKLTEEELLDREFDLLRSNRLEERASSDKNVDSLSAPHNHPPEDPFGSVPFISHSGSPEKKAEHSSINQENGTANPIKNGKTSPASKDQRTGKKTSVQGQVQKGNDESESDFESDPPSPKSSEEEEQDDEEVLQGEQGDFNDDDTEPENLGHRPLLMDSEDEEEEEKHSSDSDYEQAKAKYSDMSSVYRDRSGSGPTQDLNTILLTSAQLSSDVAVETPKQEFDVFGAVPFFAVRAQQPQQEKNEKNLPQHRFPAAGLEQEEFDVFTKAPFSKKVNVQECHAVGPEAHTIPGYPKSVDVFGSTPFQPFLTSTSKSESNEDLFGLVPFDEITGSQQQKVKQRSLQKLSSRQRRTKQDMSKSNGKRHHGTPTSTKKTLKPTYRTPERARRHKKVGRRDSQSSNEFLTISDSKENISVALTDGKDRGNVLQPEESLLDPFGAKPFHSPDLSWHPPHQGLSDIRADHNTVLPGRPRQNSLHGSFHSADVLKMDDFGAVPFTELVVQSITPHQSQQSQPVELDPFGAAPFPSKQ
T2 sequence (Q2M2I8 whole entry, the tested form may be a part): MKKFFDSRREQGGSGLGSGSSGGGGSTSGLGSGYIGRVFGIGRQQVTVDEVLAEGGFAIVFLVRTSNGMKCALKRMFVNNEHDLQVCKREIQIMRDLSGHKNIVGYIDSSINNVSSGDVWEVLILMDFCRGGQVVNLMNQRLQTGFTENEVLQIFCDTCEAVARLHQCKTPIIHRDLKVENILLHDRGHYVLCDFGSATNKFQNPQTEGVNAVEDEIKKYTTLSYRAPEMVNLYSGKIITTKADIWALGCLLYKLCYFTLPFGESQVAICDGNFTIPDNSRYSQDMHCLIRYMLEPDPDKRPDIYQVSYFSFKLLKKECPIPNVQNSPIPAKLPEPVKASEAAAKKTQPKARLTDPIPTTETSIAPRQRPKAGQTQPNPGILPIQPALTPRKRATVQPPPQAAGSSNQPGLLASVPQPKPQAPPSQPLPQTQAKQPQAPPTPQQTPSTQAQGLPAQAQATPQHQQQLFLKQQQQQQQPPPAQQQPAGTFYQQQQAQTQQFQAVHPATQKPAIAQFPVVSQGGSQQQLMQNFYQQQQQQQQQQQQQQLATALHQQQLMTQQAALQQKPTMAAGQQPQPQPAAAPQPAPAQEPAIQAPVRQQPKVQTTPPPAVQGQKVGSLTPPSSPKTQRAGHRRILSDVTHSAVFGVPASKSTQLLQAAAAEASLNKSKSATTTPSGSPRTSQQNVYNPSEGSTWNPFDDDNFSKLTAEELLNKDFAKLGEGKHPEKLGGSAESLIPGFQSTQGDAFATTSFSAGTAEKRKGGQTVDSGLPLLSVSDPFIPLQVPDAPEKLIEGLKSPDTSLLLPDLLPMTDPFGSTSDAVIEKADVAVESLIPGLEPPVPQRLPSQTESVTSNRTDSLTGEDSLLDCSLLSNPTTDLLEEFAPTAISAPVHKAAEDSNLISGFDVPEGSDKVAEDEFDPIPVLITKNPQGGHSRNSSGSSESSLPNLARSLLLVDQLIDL

Ki [1] [µM]	Ki [2] [µM]	Ki [3] [µM]	Ki [4] [µM]	Ki [5] [µM]	Ki [6] [µM]	Ki [7] [µM]	Ki [8] [µM]	Ki [9] [µM]	SMILES
> 100	25	0.027	> 100	–	–	–	–	–	COc1cccc(Nc2ccnc3ccccc23)c1 [compound 15, N-(3-methoxyphenyl)quinolin-4-amine]
> 100	> 100	–	13	0.65	–	–	–	–	CN(C)c1cccc(Nc2ccnc3ccc(C(F)(F)F)cc23)c1 [compound 8, ^1N,^1N-dimethyl-3-N-[6-(trifluoromethyl)quinolin-4-yl]benzene-1,3-diamine]
–	–	–	–	–	> 100	4.9	> 100	> 100	FS(F)(F)(F)(F)c1cccc(Nc2ccnc3ccc(Br)cc23)c1 [compound 32, 6-bromo-N-(3-(pentafluoro-λ^6-sulfaneyl)phenyl)quinolin-4-amine]
–	–	–	–	–	40	0.056	> 100	> 100	O=[N+]([O-])c1cccc(Nc2ccnc3ccc(Br)cc23)c1 [compound 21, 6-bromo-N-(3-nitrophenyl)quinolin-4-amine]
> 100	29	0.97	> 100	–	–	–	–	–	CN(C)c1cccc(Nc2ccnc3ccccc23)c1 [compound 10, N1 ,N1-dimethyl-N3-(quinolin-4-yl)benzene-1,3-diamine]
30	6.6	0.012	> 100	–	–	–	–	–	Oc1cccc(Nc2ccnc3ccccc23)c1 [compound 16, 3-(quinolin-4-ylamino)phenol]
5.8	2.6	0.0047	3	–	–	–	–	–	Oc1cccc(Nc2ccnc3ccc(C(F)(F)F)cc23)c1 [compound 5, 3-((6-(trifluoromethyl)quinolin-4-yl)amino)phenol]
–	–	–	–	–	> 100	2.6	> 100	> 100	CC(C)(C)c1cccc(Nc2ccnc3ccc(Br)cc23)c1 [compound 34, 6-bromo-N-(3-tert-butylphenyl)quinolin-4-amine]
16	8.5	0.041	5	–	–	–	–	–	OCc1ccccc1Nc1ccnc2ccc(C(F)(F)F)cc12 [compound 12, (2-{[6-(trifluoromethyl)quinolin-4-yl]amino}phenyl)methanol]
19	23	0.03	> 100	–	–	–	–	–	COc1cccc(Nc2ccnc3ccc(S(C)(=O)=O)cc23)c1 [compound 19, 6-methanesulfonyl-N-(3-methoxyphenyl)quinolin-4-amine]
7.3	1.6	0.0057	27	–	–	–	–	–	COc1ccc2nccc(Nc3cccc(O)c3)c2c1 [compound 18, 3-((6-methoxyquinolin-4-yl)amino)phenol]
–	–	–	–	–	0.5	0.0012	5.7	2	Oc1cccc(Nc2ccnc3ccc(Br)cc23)c1 [compound 14, 3-((6-bromoquinolin-4-yl)amino)phenol]
–	–	–	–	–	0.39	0.011	5.5	1.3	COc1cccc(Nc2ncnc3ccc(Br)cc23)c1 [compound 29, 6-bromo-N-(3-methoxyphenyl)quinazolin-4-amine]
15	10	0.06	20	–	–	–	–	–	OCc1cccc(Nc2ccnc3ccc(C(F)(F)F)cc23)c1 [compound 11, (3-{[6-(trifluoromethyl)quinolin-4-yl]amino}phenyl)methanol]
26	9.1	0.0079	> 100	–	–	–	–	–	COc1cccc(Nc2ccnc3ccc(OC)cc23)c1 [compound 17, 6-methoxy-N-(3-methoxyphenyl)quinolin-4-amine]
> 100	> 100	0.21	> 100	–	–	–	–	–	O=[N+]([O-])c1cccc(Nc2ccnc3ccc(C(F)(F)F)cc23)c1 [compound 6, N-(3-nitrophenyl)-6-(trifluoromethyl)quinolin-4-amine]
–	–	–	–	–	3	0.0029	32	7	COc1cccc(Nc2ccnc3ccc(Br)cc23)c1 [compound 13, 6-bromo-N-(3-methoxyphenyl)quinolin-4-amine]
–	–	–	–	–	> 100	–	> 100	> 100	Brc1ccc2nccc(Nc3cccc4c3OCO4)c2c1 [compound 27, N-(Benzo[d][1,3]dioxol-4-yl)-6-bromoquinolin-4-amine]
–	–	–	–	–	5.2	0.035	10	12	Brc1ccc2nccc(Nc3ccc4c(c3)OCO4)c2c1 [compound 25, N-(2H-1,3-benzodioxol-5-yl)-6-bromoquinolin-4-amine]

SMILES	Ki [1] [µM]	Ki [2] [µM]	Ki [3] [µM]	Ki [4] [µM]	Ki [5] [µM]	Ki [6] [µM]	Ki [7] [µM]	Ki [8] [µM]	Ki [9] [µM]
CC(C)(C)Oc1cccc(Nc2ccnc3ccc(Br)cc23)c1 [compound 33, 6-bromo-N-[3-(tert-butoxy)phenyl]quinolin-4-amine]	–	–	–	–	–	15	2.2	12	> 100
